In patent US8222229B2, “Peritoneal dialysis method” (Kowa Co., Ltd., priority 2002, dated 2012):

Tested on: HPMC (human peritoneal mesothelial cells)
Test: HPMC viability under high level glucose, cell counting (WST-1)
Format: cell-based
Details: for effect on decrease in the viability of HPMC attributed to glucose (as measured by absorbance): preincubation 3 h with 0, 10, 100, 1,000 μM test substance, then 8 h in glucose 5.8 mM, 75 mM, 140 mM, WST-1
Experimental: Peritoneal mesothelial cells (HPMC) were preincubated for three hours in culture media (M199) containing ATP (0, 10, 100, and 1,000 μM). The cells were washed with an HPMC culture medium (saline buffer) and then incubated for eight hours in culture media (M199) containing glucose at three different levels (5.8 mM, 75 mM, and 140 mM). HPMC viability was obtained through cell counting (WST-1).
Instead of ATP, adenosine, which is a metabolite of ATP, was employed to study the effect of adenosine on decrease in HPMC viability caused by high level glucose.
Prior to the step of preincubation with ATP-containing culture media in the procedure of Example 1, HPMC were preincubated for 30 minutes with each of the following selective ATP receptor antagonists: (1) Suramin (P2X, P2Y receptor antagonist; 10 μM), (2) Reactive Blue 2 (P2Y receptor antagonist; 30 μM), and (3) PPADS (P2X receptor antagonist; 10 μM). Thereafter, the test was performed as described in Example 1.

Compound | ATP's effect on decrease in the viability of HPMC attributed to glucose after ATP receptor antagonist pretreatment (HPMC preincubated 30 min with Suramin 10 μM, Reactive Blue 2 30 μM or PPADS 10 μM before ATP preincubation, glucose 5.8, 75, 140 mM) | effect on decrease in the viability of HPMC attributed to glucose (as measured by absorbance)
Nc1ncnc2c1ncn2[C@@H]1O[C@H](COP(=O)(O)OP(=O)(O)OP(=O)(O)O)[C@@H](O)[C@H]1O [ATP, adenosine triphosphate] | no effect of alleviating reduction in HPMC viability | decrease in viability caused by high level glucose was significantly alleviated
Nc1ncnc2c1ncn2[C@@H]1O[C@H](CO)[C@@H](O)[C@H]1O [Adenosine, adenosine, reference compound] | – | no effect of alleviating decrease in HPMC viability
